Results reported in article PMC12362796, “Bilirubin Targeting WNK1 to Alleviate NLRP3‐Mediated Neuroinflammation” (Advanced Science, 2025).

How the values were obtained:
[1] = molecular target: T1, point mutations of WNK1 (1–491) (Homo sapiens, UniProt Q9H4A3, F356A); experiment: MST, EGFP-tagged point mutations of WNK1 (1–491); assay type: binding; details: WNK1-N F356A
T1 construct: EGFP‐tagged point mutations of WNK1 (1–491) (15 min) in lysates; expressed in transfected cells; host or cells: HEK293T
Excerpt: (§1) Molecular docking identified several crucial amino acid residues within binding site 1 of the kinase domain for the binding of WNK1 and bilirubin. These residues included Thr301 (T301), Met304 (M304), Lys351 (K351), and Phe356 (F356) (Figure 3C). To investigate this further, we constructed WNK1‐N mutants by replacing these residues with alanine (A). […] This finding highlights the critical role of these residues in bilirubin binding.
(§2) In HEK293T cells, proteins tagged with green fluorescent protein (GFP) were expressed. The cells were lysed using the M‐PER Mammalian Protein Extraction Reagent (cat. no. 78505, Thermo Scientific) supplemented with protease inhibitors. Lysates were centrifuged at 12000 × g for 15 min at 4 °C, and the supernatant containing proteins was diluted 10‐fold with 1x PBST. Protein fluorescence intensity and solubility were assessed using capillary scanning at 60% LED power.
(§3) For the binding assay, the proteins were mixed with ligands and incubated for 15 min at room temperature before being loaded into Monolith NT.115 Capillaries or NT.115 Premium Capillaries (NanoTemper Technologies, MO‐K022 and MO‐K025). MST measurements were performed on a Monolith NT.115 instrument (NanoTemper Technologies) at 25 °C. Instrument parameters included no more than 80% excitation power and a medium MST power. Data analysis was conducted using the MO. Affinity Analysis software (NanoTemper Technologies).

[2] = molecular target: T2, point mutations of WNK1 (1–491) (Homo sapiens, UniProt Q9H4A3, K351A); experiment: MST, EGFP-tagged point mutations of WNK1 (1–491); assay type: binding; details: WNK1-N K351A
T2 construct: EGFP‐tagged point mutations of WNK1 (1–491) (15 min) in lysates; expressed in transfected cells; host or cells: HEK293T
Excerpt: as §1, §2, §3

[3] = molecular target: T3, point mutations of WNK1 (1–491) (Homo sapiens, UniProt Q9H4A3, M304A); experiment: MST, EGFP-tagged point mutations of WNK1 (1–491); assay type: binding; details: WNK1-N M304A
T3 construct: EGFP‐tagged point mutations of WNK1 (1–491) (15 min) in lysates; expressed in transfected cells; host or cells: HEK293T
Excerpt: as §1, §2, §3

[4] = molecular target: T4, point mutations of WNK1 (1–491) (Homo sapiens, UniProt Q9H4A3, T301A); experiment: MST, EGFP-tagged point mutations of WNK1 (1–491); assay type: binding; details: WNK1-N T301A
T4 construct: EGFP‐tagged point mutations of WNK1 (1–491) (15 min) in lysates; expressed in transfected cells; host or cells: HEK293T
Excerpt: as §1, §2, §3

[5] = molecular target: T5, hWNK1 (181–507) (Homo sapiens, UniProt Q9H4A3); experiment: ADP-Glo kinase assay, purified hWNK1 kinase domain; assay type: biochemical; details: ADP production, luminescence normalized to reactions lacking bilirubin; 12 serial dilutions from 20 µM; read-out: EC50, activation of WNK1 kinase activity
T5 construct: the amino acid fragment 181–507 of human WNK1 (hWNK1)
Excerpt: Given the binding of bilirubin to the kinase domain of WNK1, we aimed to explore its effect on WNK1 with a particular focus on its kinase activity. To evaluate WNK1 kinase activity, we utilized an in vitro kinase enzyme assay system to quantify ADP production by the amino acid fragment 181–507 of human WNK1 (hWNK1) over a range of bilirubin concentrations. The kinase‐dead WNK1 mutant hWNK1(181–507 S382A) served as a negative control (Figure S10, Supporting Information).^[ [30] ^]
WNK1 kinase activity was measured using the ADP‐Glo Kinase Assay (Promega, Cat. V9101) following the manufacturer's instructions. Purified protein was incubated with bilirubin across a range of 12 serially diluted concentrations, beginning at a maximum concentration of 20 µM. After the incubation period, luminescence was recorded using a microplate reader (Synergy H1M, BioTek)

T4 sequence (Q9H4A3 1-491 T301A): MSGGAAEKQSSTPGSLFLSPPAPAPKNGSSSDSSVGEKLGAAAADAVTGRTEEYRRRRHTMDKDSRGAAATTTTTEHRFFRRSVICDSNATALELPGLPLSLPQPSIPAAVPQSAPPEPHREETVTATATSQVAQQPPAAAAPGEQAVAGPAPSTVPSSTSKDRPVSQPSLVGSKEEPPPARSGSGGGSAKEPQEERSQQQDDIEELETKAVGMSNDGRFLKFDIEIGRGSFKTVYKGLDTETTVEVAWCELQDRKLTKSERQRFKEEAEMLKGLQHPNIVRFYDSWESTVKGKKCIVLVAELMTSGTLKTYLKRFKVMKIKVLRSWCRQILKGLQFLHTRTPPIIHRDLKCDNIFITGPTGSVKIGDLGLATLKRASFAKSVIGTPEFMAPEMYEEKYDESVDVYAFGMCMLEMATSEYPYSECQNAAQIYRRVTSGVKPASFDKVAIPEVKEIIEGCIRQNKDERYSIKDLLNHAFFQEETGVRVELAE
T1 sequence (Q9H4A3 1-491 F356A): as the sequence (Q9H4A3 1-491 T301A) above, with A301T, F356A counted along it
T2 sequence (Q9H4A3 1-491 K351A): as the sequence (Q9H4A3 1-491 T301A) above, with A301T, K351A counted along it
T5 sequence (Q9H4A3 181-507): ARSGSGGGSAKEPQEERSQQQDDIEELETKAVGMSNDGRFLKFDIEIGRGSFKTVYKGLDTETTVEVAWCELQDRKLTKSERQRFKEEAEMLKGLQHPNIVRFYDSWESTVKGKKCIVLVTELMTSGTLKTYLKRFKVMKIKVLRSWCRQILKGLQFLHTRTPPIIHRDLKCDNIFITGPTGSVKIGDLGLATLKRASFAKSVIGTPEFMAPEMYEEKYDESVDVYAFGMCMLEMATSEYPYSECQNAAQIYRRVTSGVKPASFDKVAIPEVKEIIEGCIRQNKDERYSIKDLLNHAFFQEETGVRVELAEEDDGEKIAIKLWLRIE
T3 sequence (Q9H4A3 1-491 M304A): as the sequence (Q9H4A3 1-491 T301A) above, with A301T, M304A counted along it

binding to F356A mutant [1]: reduced binding affinity | binding to K351A mutant [2]: reduced binding affinity | binding to M304A mutant [3]: reduced binding affinity | binding to T301A mutant [4]: unable to bind | EC50 [5]: 0.896 µM
Compound: C=CC1=C(C)/C(=C/c2[nH]c(Cc3[nH]c(/C=C4\NC(=O)C(C)=C4C=C)c(C)c3CCC(=O)O)c(CCC(=O)O)c2C)NC1=O [bilirubin, Bilirubin]
